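These data come from cells grown in 96-well plates and exposed to compound for 48 hours at five concentrations. TGI denotes the concentration required for complete inhibition of growth.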
Columns and labels:
Test in all cases: NCI anticancer screen, dose series, 48 h
786-0 renal = system: 786-0 renal
A498 renal = system: A498 renal
A549 NSCLC = system: A549 NSCLC
ACHN renal = system: ACHN renal
CCRF-CEM leukemia = system: CCRF-CEM leukemia
COLO 205 colon = system: COLO 205 colon
DLD-1 colon = system: DLD-1 colon
DMS 114 small cell lung = system: DMS 114 small cell lung
DMS 273 small cell lung = system: DMS 273 small cell lung
EKVX NSCLC = system: EKVX NSCLC
HCC-2998 colon = system: HCC-2998 colon
HCT-116 colon = system: HCT-116 colon
HCT-15 colon = system: HCT-15 colon
HL-60(TB) leukemia = system: HL-60(TB) leukemia
HOP-18 NSCLC = system: HOP-18 NSCLC
HOP-62 NSCLC = system: HOP-62 NSCLC
HT29 colon = system: HT29 colon
IGROV1 ovarian = system: IGROV1 ovarian
K-562 leukemia = system: K-562 leukemia
KM12 colon = system: KM12 colon
KM20L2 colon = system: KM20L2 colon
LOX IMVI melanoma = system: LOX IMVI melanoma
LXFL 529 NSCLC = system: LXFL 529 NSCLC
M14 melanoma = system: M14 melanoma
M19-MEL melanoma = system: M19-MEL melanoma
MALME-3M melanoma = system: MALME-3M melanoma
MOLT-4 leukemia = system: MOLT-4 leukemia
NCI-H226 lung = system: NCI-H226 lung
NCI-H23 lung = system: NCI-H23 lung
NCI-H460 lung = system: NCI-H460 lung
NCI-H522 lung = system: NCI-H522 lung
OVCAR-3 ovarian = system: OVCAR-3 ovarian
OVCAR-5 ovarian = system: OVCAR-5 ovarian
OVCAR-8 ovarian = system: OVCAR-8 ovarian
RPMI-8226 leukemia = system: RPMI-8226 leukemia
RXF 393 renal = system: RXF 393 renal
SF-295 CNS = system: SF-295 CNS
SF-539 CNS = system: SF-539 CNS
SK-MEL-2 melanoma = system: SK-MEL-2 melanoma
SK-MEL-28 melanoma = system: SK-MEL-28 melanoma
SK-MEL-5 melanoma = system: SK-MEL-5 melanoma
SK-OV-3 ovarian = system: SK-OV-3 ovarian
SN12C renal = system: SN12C renal
SNB-19 CNS = system: SNB-19 CNS
SNB-75 CNS = system: SNB-75 CNS
SNB-78 CNS = system: SNB-78 CNS
SR leukemia = system: SR leukemia
SW-620 colon = system: SW-620 colon
TK-10 renal = system: TK-10 renal
U251 CNS = system: U251 CNS
UACC-257 melanoma = system: UACC-257 melanoma
UACC-62 melanoma = system: UACC-62 melanoma
UO-31 renal = system: UO-31 renal
CAKI-1 renal = system: CAKI-1 renal
OVCAR-4 ovarian = system: OVCAR-4 ovarian
SF-268 CNS = system: SF-268 CNS

C[C@H]1CC[P+](C)(c2ccccc2)C1 (some centres not stated)
TGI (786-0 renal): > 100 µM
TGI (A498 renal): > 100 µM
TGI (A549 NSCLC): > 100 µM
TGI (ACHN renal): > 100 µM
TGI (CCRF-CEM leukemia): > 100 µM
TGI (COLO 205 colon): > 100 µM
TGI (DLD-1 colon): > 100 µM
TGI (DMS 114 small cell lung): > 100 µM
TGI (DMS 273 small cell lung): > 100 µM
TGI (EKVX NSCLC): > 100 µM
TGI (HCC-2998 colon): > 100 µM
TGI (HCT-116 colon): > 100 µM
TGI (HCT-15 colon): > 100 µM
TGI (HL-60(TB) leukemia): > 100 µM
TGI (HOP-18 NSCLC): > 100 µM
TGI (HOP-62 NSCLC): > 100 µM
TGI (HT29 colon): > 100 µM
TGI (IGROV1 ovarian): > 100 µM
TGI (K-562 leukemia): > 100 µM
TGI (KM12 colon): > 100 µM
TGI (KM20L2 colon): > 100 µM
TGI (LOX IMVI melanoma): > 100 µM
TGI (LXFL 529 NSCLC): > 100 µM
TGI (M14 melanoma): > 100 µM
TGI (M19-MEL melanoma): > 100 µM
TGI (MALME-3M melanoma): > 100 µM
TGI (MOLT-4 leukemia): > 100 µM
TGI (NCI-H226 lung): > 100 µM
TGI (NCI-H23 lung): > 100 µM
TGI (NCI-H460 lung): > 100 µM
TGI (NCI-H522 lung): > 100 µM
TGI (OVCAR-3 ovarian): > 100 µM
TGI (OVCAR-5 ovarian): > 100 µM
TGI (OVCAR-8 ovarian): > 100 µM
TGI (RPMI-8226 leukemia): > 100 µM
TGI (RXF 393 renal): > 100 µM
TGI (SF-295 CNS): > 100 µM
TGI (SF-539 CNS): > 100 µM
TGI (SK-MEL-2 melanoma): > 100 µM
TGI (SK-MEL-28 melanoma): > 100 µM
TGI (SK-MEL-5 melanoma): > 100 µM
TGI (SK-OV-3 ovarian): > 100 µM
TGI (SN12C renal): > 100 µM
TGI (SNB-19 CNS): > 100 µM
TGI (SNB-75 CNS): > 100 µM
TGI (SNB-78 CNS): > 100 µM
TGI (SR leukemia): > 100 µM
TGI (SW-620 colon): > 100 µM
TGI (TK-10 renal): > 100 µM
TGI (U251 CNS): > 100 µM
TGI (UACC-257 melanoma): > 100 µM
TGI (UACC-62 melanoma): > 100 µM
TGI (UO-31 renal): > 100 µM

O=C1C(=O)C2(CC1S(=O)(=O)c1ccccc1)c1ccccc1-c1ccccc12 (configuration not stated)
TGI (786-0 renal): 82.5 µM
TGI (A498 renal): 34.8 µM
TGI (A549 NSCLC): 63.7 µM
TGI (ACHN renal): 92 µM
TGI (CAKI-1 renal): 61.6 µM
TGI (CCRF-CEM leukemia): 58.2 µM
TGI (COLO 205 colon): 26.1 µM
TGI (DLD-1 colon): 66.1 µM
TGI (DMS 114 small cell lung): 53.3 µM
TGI (DMS 273 small cell lung): 36.2 µM
TGI (EKVX NSCLC): 72.8 µM
TGI (HCC-2998 colon): 30.1 µM
TGI (HCT-116 colon): 31.9 µM
TGI (HCT-15 colon): 34.6 µM
TGI (HL-60(TB) leukemia): 58 µM
TGI (HOP-18 NSCLC): > 10 µM
TGI (HOP-62 NSCLC): 44 µM
TGI (HT29 colon): 59.7 µM
TGI (IGROV1 ovarian): 47.9 µM
TGI (K-562 leukemia): 59.3 µM
TGI (KM12 colon): 33.9 µM
TGI (KM20L2 colon): > 100 µM
TGI (LOX IMVI melanoma): 34.5 µM
TGI (LXFL 529 NSCLC): 31 µM
TGI (M14 melanoma): 28.4 µM
TGI (MALME-3M melanoma): > 10 µM
TGI (MOLT-4 leukemia): 50.5 µM
TGI (NCI-H226 lung): 82.6 µM
TGI (NCI-H23 lung): 30.2 µM
TGI (NCI-H460 lung): 36.2 µM
TGI (NCI-H522 lung): 43.1 µM
TGI (OVCAR-3 ovarian): > 10 µM
TGI (OVCAR-4 ovarian): > 100 µM
TGI (OVCAR-5 ovarian): 46.5 µM
TGI (OVCAR-8 ovarian): 34.5 µM
TGI (RPMI-8226 leukemia): 58.9 µM
TGI (RXF 393 renal): 35.6 µM
TGI (SF-268 CNS): 76.7 µM
TGI (SF-295 CNS): 37.7 µM
TGI (SK-MEL-2 melanoma): 33.8 µM
TGI (SK-MEL-28 melanoma): 35.8 µM
TGI (SK-MEL-5 melanoma): 28.2 µM
TGI (SK-OV-3 ovarian): > 100 µM
TGI (SN12C renal): 78.1 µM
TGI (SNB-19 CNS): 40.4 µM
TGI (SNB-75 CNS): > 100 µM
TGI (SNB-78 CNS): 45.6 µM
TGI (SR leukemia): 50 µM
TGI (SW-620 colon): 85.1 µM
TGI (TK-10 renal): 68.9 µM
TGI (U251 CNS): 34.3 µM
TGI (UACC-257 melanoma): 33 µM
TGI (UACC-62 melanoma): 31.9 µM
TGI (UO-31 renal): 47 µM
